Reference: publication PMC7918738, “Microtubule Destabilizing Sulfonamides as an Alternative to Taxane-Based Chemotherapy” (International Journal of Molecular Sciences, 2021)
≈ marks a conversion by molar mass, not a printed value.

Assays:
SKOV3 cells = experiment: Cell cycle analysis in SKOV3 (PI staining, flow cytometry); assay type: cell-based, human; details: 38 600 nM, 42 50 nM, 45 400 nM; for SKOV3 cells at G2/M phase: 24 h
Procedure: The effect of the lead MDS on the cell cycle of MCF7, SKOV3, and HeLa cells was analyzed in time-course experiments at 24, 48, and 72 h post-treatment by DNA staining and flow cytometry quantification. The working concentration for each compound (600 nM for 38, 50 nM for 42, and 400 nM for 45) was established at the complete inhibition of cell proliferation in view of individually assays run in parallel for each cell line.
Cell cycle analysis was performed in MCF7, SKOV-3, and HeLa cells by quantifying the DNA content by flow cytometry. Cells in the exponential growth phase at 2·10^4 cells/mL were seeded in 24-well plates (1 mL/well). After 24 h incubation, cells were treated with different concentrations of the selected compounds and the effect of treated and untreated cells was measured 24, 48, and 72 h post-treatment. Live and dead cells were collected and fixed in ice-cold ethanol/PBS (7:3) and stored at 4 °C for later use. Cells were rehydrated with PBS, treated with 100 µg/mL RNase A (Sigma-Aldrich Co., St. Louis, MO, USA) and stained overnight in darkness at room temperature with 50 µg/mL PI (Sigma-Aldrich Co.). Cell cycle profiles were then analyzed by flow cytometry using BD Accuri™ C6 Plus Flow Cytometer (BD Biosciences, San José, CA, USA). Data were analyzed with BD Accuri™ C6 Software (version 1.0.264.21, BD Biosciences, San José, CA, USA) and compared to control cells. Compounds were dissolved in DMSO and the final solvent concentration never exceeded 0.5% (v/v). Control wells included cells with 0.5% (v/v) DMSO.

[1] = Aqueous solubility, saturation shake-flask method, UV absorbance; details: phosphate buffer, pH 7, aqueous buffer, thermodynamic from solid
Procedure: UV absorbance at three maximum absorbance wavelengths of selected compounds was measured after 48 h shaking and subsequent microfiltration.
The aqueous solubility of the sulfonamides was determined using an approach based on the saturation shake-flask method. Tested compounds (1–2 mg) were stirred in pH 7.0 phosphate buffer (300 µL) for 48 h at room temperature. The resulting suspension was filtered over a 45 µm filter to discard insoluble residues, and the concentration in the supernatant was measured by UV absorbance. To determine the concentration, a scan between 270 and 400 nm was performed in a Helios-α UV-320 Spectrophotometer (Thermo-Spectronic, Thermo Fischer Scientific, Waltham, MA, USA) for each tested compound. Then, three maximum wavelengths of absorbance per compound were selected from the previous scan and calibration curves were performed at these three wavelengths. Solubility results are given as the average of the three measurements.

[2] = tested on: HT-29 (colon adenocarcinoma); experiment: Antiproliferative activity against CA-4-resistant HT-29 with or without verapamil (sensitivity to MDR pumps, XTT); assay type: cell-based, human; details: for Difference between pairs of HT-29 IC50 values in the presence or absence of verapamil: 10 µM verapamil, up to two-fold change counted as not significant; for IC50: Homo sapiens, HT-29, 72 h, XTT, without verapamil, read-out: Antiproliferative Activity IC50 HT-29
Text: Detecting changes in drug potency when inhibiting MDR-mediated efflux reflect that these transporters reduce the intracellular drug concentration. HT-29 has been reported to express moderate levels of MDR1, accounting for a resistant phenotype. A comparison of the antiproliferative IC50 values of each MDS in the presence or absence of verapamil provides an estimate of the susceptibility of each compound to efflux pumps.
MCF7 (human breast carcinoma), SKOV-3 (human ovarian carcinoma), OVCAR-3 (human ovarian carcinoma), OVCAR-8 (human ovarian carcinoma), and HeLa (human cervical carcinoma) cell lines were cultured in Dulbecco’s Modified Eagle’s Medium (DMEM) (Gibco, Thermo Fischer Scientific) containing 10% (v/v) heat-inactivated fetal bovine serum (HIFBS) (Lonza-Cambrex, Karlskoga, Sweden), 2 mM L-glutamine (Lonza-Cambrex, Karlskoga, Sweden), 100 μg/mL streptomycin, and 100 IU/mL penicillin (Lonza-Cambrex) at 37 °C in humidified 95% air and 5% CO2. HT-29 (human colon carcinoma), IGROV-1 (human ovarian carcinoma), and A2780 (human ovarian carcinoma) cell lines were cultured in RPMI 1640 medium (Gibco, Thermo Fischer Scientific) supplemented with 10% HIFBS, 100 μg/mL streptomycin, and 100 IU/mL penicillin at 37 °C in humidified 95% air and 5% CO2 atmosphere. The presence of mycoplasma was routinely checked with MycoAlert kit (Lonza-Cambrex) and only mycoplasma-free cells were used in the experiments. Ovarian tumor cell lines were originally acquired from Dr Atanasio Pandiella from Centro de Investigación del Cáncer (CIC), Salamanca, Spain. HeLa, HT-29 and MCF7 tumor cell lines were provided by Dr Faustino Mollinedo from Centro de Investigaciones Biológicas Margarita Salas, Madrid, Spain.
MCF7, HeLa, and HT-29 cell proliferation, when treated with the corresponding compounds, were determined using the XTT (sodium 3’-[1(phenylaminocarbonyl)-3,4-tetrazolium]-bis(4-methoxy-6-nitro)-benzenesulfonic acid hydrate) cell proliferation kit (Roche Molecular Biochemicals, Mannheim, Germany). A freshly prepared mixture of XTT labeling reagent with 0.02% (v/v) PMS (N-methyl-dibenzopyrazine methyl sulfate) electron coupling reagent was added to cells (50 µL/well in 96-well plates, total volume of 160 µL/well). Cells were incubated under standard culture conditions for 4 h (MCF7 and HeLa) or 6 h (HT-29). The absorbance of the formazan product generated was measured at 450 nm using a multi-well plate reader. SKOV-3, OVCAR-3, OVCAR-8, IGROV-1, A-2780 cell proliferation, when treated with the corresponding compound, were determined using MTT (3-(4,5-dimethylthiazol-2-yl)-2,5-diphenyl-2H-tetrazolium bromide) (Sigma-Aldrich, St. Louis, MO, USA). MTT in Phosphate Buffer Saline (PBS) (5 mg/ml) was added to cells (110 µL/well in 24-well plates, total volume of 1110 µL/well). After 1 hour of incubation, the medium was aspirated, and formazan violet crystals were dissolved in dimethyl sulfoxide (DMSO) (500 µL/well). Absorbance was measured at 570 nm in a plate reader (Ultra Evolution, Tecan, Männedorf, Suiza). To determine cell viability, cells in exponential growth phase were seeded (100 µL/well in 96-well plates and 1000 µL/well in 24-well plates) with appropriate cell line concentration (1.5·10^4 cells/mL for MCF7 and HeLa, 3·10^4 cells/mL for HT-29, and 1·10^4 cells/mL for SKOV-3, OVCAR-3, OVCAR-8, IGROV-1, and A-2780) in complete RPMI 1640 or DMEM medium at 37°C and 5% CO2 atmosphere. After 24 h incubation, to allow cells to attach to the plates, all compounds were added at 1 µM concentration and the effect on the proliferation was evaluated 72 h post-treatment. […] Non-linear curves fitting the experimental data were carried out for each compound. Compounds were dissolved in DMSO and the final solvent concentrations never exceeded 0.5% (v/v). The control wells included […] with 0.5% (v/v) DMSO and the positive control. 10 µM verapamil was included as a control for the HT-29 cell line.

SMILES | SKOV3 cells at G2/M phase (SKOV3 cells) | SKOV3 cells at SubG0/G1 (SKOV3 cells; 48 h) | SKOV3 cells at SubG0/G1 (SKOV3 cells; 72 h) | solubility at 48 h [1] | Difference between pairs of HT-29 IC50 values in the presence or absence of verapamil [2] | IC50 [2]
COc1ccc(S(=O)(=O)N(C)c2cc(OC)c(OC)c(OC)c2)cc1N [Compound 42] | 44% | 34% | 53% | 108 µg/mL (≈ 282 µM) | no significant differences | 81 nM
CNc1ccc(S(=O)(=O)N(C)c2cc(OC)c(OC)c(OC)c2)cc1 [Compound 38] | 44% | 35% | 43% | 16 µg/mL (≈ 43.7 µM) | no significant differences | 59 nM
COc1ccc(S(=O)(=O)N(Cc2ccccc2)c2cc(OC)c(OC)c(OC)c2)cc1N [Compound 45] | 44% | 46% | 63% | 14 µg/mL (≈ 30.5 µM) | no significant differences | 300 nM
